Consider 3 molecules from US20090099376A1, “TIGECYCLINE AND METHODS OF PREPARING INTERMEDIATES” (Wyeth, priority 2007, published 2009).

≈ marks a conversion by molar mass, not a printed value.

The nature of data set [1]: Solubility at RT in hydrogenation solvent mixtures doped with IPA. In kind it is physicochemical. The text has this: An investigation by examining the solubility characteristics of 9-nitrominocycline and 9-aminominocycline sulfate in the presence of various amounts of IPA to gauge whether the starting material and/or product could in fact precipitate out in the reaction solvent was initiated.

The nature of data set [2]: Dynamic vapor sorption (DVS) study. The data set is classed as physicochemical. Particulars: RH 90%. The text has this:
As a comparison, we ran the DVS on 9-nitrominocycline. This intermediate picks up to 40% by weight of water at RH 90%.

The subject of data set [3] is methicillin-resistant Staphylococcus aureus. Particulars: cited from earlier work.
Data set [4] concerns penicillin-resistant Streptococcus pneumoniae. Particulars: cited from earlier work.
Data set [5] relates to vancomycin-resistant enterococci. Particulars: cited from earlier work.
The test system of data set [6] is organisms carrying either of the two major forms of tetracycline resistance: efflux and ribosomal protection. Particulars: organisms with tetracycline resistance by efflux or ribosomal protection; cited from earlier work.
Setting [7] is: 80:20 water:methanol with 20% wt/wt IPA, aqueous with cosolvent or surfactant or cyclodextrin, Exp. 8: +20% wt/wt IPA, 80:20 water:methanol.
[8] abbreviates: 80:20 water:methanol with 35% wt/wt IPA, aqueous with cosolvent or surfactant or cyclodextrin, Exp. 9: +35% wt/wt IPA, 80:20 water:methanol.
The mark [9] stands for this setting: 80:20 water:methanol with 50% wt/wt IPA, aqueous with cosolvent or surfactant or cyclodextrin, Exp. 10: +50% wt/wt IPA, 80:20 water:methanol.
Where [10] appears, read: v:v) with 0% wt/wt IPA, organic solvent or mixture, Exp. 1: MeOH:water (99:1, v:v) +0% wt/wt IPA.
The mark [11] stands for this setting: v:v) with 4% wt/wt IPA, organic solvent or mixture, Exp. 2: MeOH:water (99:1, v:v) +4% wt/wt IPA.
Setting [12] is: v:v) with 20% wt/wt IPA, organic solvent or mixture, Exp. 3: MeOH:water (99:1, v:v) +20% wt/wt IPA.
Setting [13] is: v:v) with 35% wt/wt IPA, organic solvent or mixture, Exp. 4: MeOH:water (99:1, v:v) +35% wt/wt IPA.
The mark [14] stands for this setting: v:v) with 50% wt/wt IPA, organic solvent or mixture, Exp. 5: MeOH:water (99:1, v:v) +50% wt/wt IPA.

For the molecule `CN(C)c1cc(N)c(O)c2c1C[C@H]1C[C@H]3[C@H](N(C)C)C(O)=C(C(N)=O)C(=O)[C@@]3(O)C(O)=C1C2=O` [9-aminominocycline], the “Solubility (in words)” value in data set [1] (80:20 water:methanol) is “high”; in data set [1] (99:1 methanol:water) it was “somewhat low”. Also, the solubility turned out to be 243 mg/mL (≈ 514 mM) in data set [1] (setting [7]); 103 mg/mL (≈ 218 mM) in data set [1] (setting [8]); 58 mg/mL (≈ 123 mM) in data set [1] (setting [9]); 1 mg/mL (≈ 2.12 mM) in data set [1] (organic solvent or mixture, Exp. 11: IPA Only); 14 mg/mL (≈ 29.6 mM) in data set [1] (setting [10]); 16 mg/mL (≈ 33.9 mM) in data set [1] (setting [11]). Moreover, the figures for the solubility in data set [1] (setting [12]), in data set [1] (setting [13]) and in data set [1] (setting [14]) were 12 mg/mL (≈ 25.4 mM), 9 mg/mL (≈ 19 mM) and 7 mg/mL (≈ 14.8 mM), respectively. The “Solubility at RT” value in data set [1] (Exp. 6: +0% wt/wt IPA, 80:20 water:methanol) is listed as “high”; in data set [1] (Exp. 7: +4% wt/wt IPA, 80:20 water:methanol), “high”.

Take `CN(C)c1cc([N+](=O)[O-])c(O)c2c1C[C@H]1C[C@H]3[C@H](N(C)C)C(O)=C(C(N)=O)C(=O)[C@@]3(O)C(O)=C1C2=O` [9-nitrominocycline]: the “Water uptake in DVS” value in data set [2] is given as “up to 40 % by weight”. In addition, in data set [1] (80:20 water:methanol), the “Solubility (in words)” value is on record as “fairly high”. Further, the solubility was more than 421 mg/mL in data set [1] (80:20 water:methanol with 0% wt/wt IPA, aqueous with cosolvent or surfactant or cyclodextrin, Exp. 6: +0% wt/wt IPA, 80:20 water:methanol); more than 426 mg/mL in data set [1] (80:20 water:methanol with 4% wt/wt IPA, aqueous with cosolvent or surfactant or cyclodextrin, Exp. 7: +4% wt/wt IPA, 80:20 water:methanol); more than 453 mg/mL in data set [1] (setting [7]); more than 303 mg/mL in data set [1] (setting [8]); 333 mg/mL (≈ 663 mM) in data set [1] (setting [9]); more than 466 mg/mL in data set [1] (setting [10]). Moreover, the solubility turned out to be 129 mg/mL (≈ 257 mM) in data set [1] (setting [11]), 68 mg/mL (≈ 135 mM) in data set [1] (setting [12]), 30 mg/mL (≈ 59.7 mM) in data set [1] (setting [13]) and 23 mg/mL (≈ 45.8 mM) in data set [1] (setting [14]).

Turning to `CN(C)c1cc(NC(=O)CNC(C)(C)C)c(O)c2c1C[C@H]1C[C@H]3[C@H](N(C)C)C(O)=C(C(N)=O)C(=O)[C@@]3(O)C(O)=C1C2=O` [Tigecycline, (4S,4aS,5aR,12aS)-9-[2-(tert-butylamino)acetamido]-4,7-bis(dimethylamino)-1,4,4a,5,5a,6,11,12a-octahydro-3,10,12,12a-tetrahydroxy-1,11-dioxo-2-naphthacenecarboxamide], the Antibacterial activity entry in data set [3], in data set [4], in data set [5] and in data set [6] was “active” in each case.

As usually defined, the solubility is the concentration that dissolves in the medium under given conditions.
